Measurements published in patent US9408395B2, “Process for potentiating the production of Lingzhi mushroom (Ganoderma lucidum) substances and antifungal activity thereof” (UNIVERSIDAD DE ANTIOQUIA (UDEA), priority 2013, dated 2016).

Assays:
[1] = tested on: Mycosphaerella fijiensis; assay: Agar diffusion assay (plate diffusion method); assay type: cell-based; conditions: compared to other treatments and growth control
Procedure: In order to corroborate antifungal activity of each extract, said activity was assayed in Petri dishes using the plate diffusion method; for said purpose, 20 ml of PDA medium were dispensed for a final thickness of 4 mm. After homogenizing inocula, deep plating was performed wherein each plate was inoculated using 2×10^4 Mycosphaerella fijiensis mycelium fragments. Afterwards, using a 0.5 mm internal diameter punch, wells were made wherein 10 or 20 μL of each extract were deposited, in addition to the inhibition positive control using Mancozeb and a negative control using a 1:1 ethanol:DMSO mix. The plates were incubated in darkness conditions, 25±1° C. for seven days.

[2] = tested on: Mycosphaerella fijiensis; assay: Mycelium growth inhibition in microplate format, protein extracts; assay type: cell-based; conditions: 0.3 ppm
Procedure: In order to obtain protein extracts, the optimized protein extraction protocol was followed (Item 4.1.2). Later, the protein pellet was re-suspended in 1 ml PBS pH 7.4 buffer, 200 μL DMSO and 200 μL glycerol. The protein extracts of each LED were quantified by the Bradford method (Bio-Rad Protein Assay®) (61). […] The extracts were diluted in pH 7.4 PBS phosphate buffer.
The Mycosphaerella fijiensis-inoculated microplates and also treated with the different extracts were incubated. Readings were performed according to the Standard Norm. Each concentration was assayed in three repetitions, including three experiment replicas (63, 64). Thereafter, the determination of the growth inhibition percentage for each concentration of each protein extract used was performed (65-67).
Through the use of logic models (non linear regressions) the relationship between the concentration logarithm of each antifungal (x axis) versus inhibition percentage (y axis) was established thus obtaining the respective equations, for EC50 analysis for each treatment at 5 concentrations, in order to determine the necessary concentration of each extract to reduce the population growth by 50% at an in vitro level.
In order to determine which the best protein extract for Mycosphaerella fijiensis mycelium growth inhibition was, a statistical analysis using a category factorial design was performed. […]

Mancozeb
Mycelium growth inhibition (in words) [1]: entirely inhibited
Inhibition of Mycosphaerella fijiensis growth [2]: 72%
